Measurements: article PMC4494766 (Monatshefte Fur Chemie, 2011)
Converted amounts (≈) assume the structure as drawn.

system: M. tuberculosis wild-type strain sp. 210 resistant to PAS, INH, ETB and RFP; test: Tuberculostatic activity, test-tube successive dilution in Youmans' medium; type: cell-based; conditions: Mycobacterium tuberculosis

In order of falling MIC:
1. CSC(=NNC(=O)c1ccc(Cl)cc1Cl)SC [Compound 4, Dimethyl 2,4-dichlorobenzoylcarbonohydrazonodithioate]  50 µg/mL (≈ 162 µM)
2. COc1ccc(CC(=O)NN=C(SC)SC)cc1OC [Compound 13, Dimethyl 2-(3,4-dimethoxyphenyl)acetylcarbonohydrazonodithioate]  50 µg/mL (≈ 159 µM)
3. COc1cc(C(=O)NN=C(SC)SC)cc(OC)c1OC [Compound 12, Dimethyl 3,4,5-trimethoxybenzoylcarbonohydrazonodithioate]  50 µg/mL (≈ 151 µM)
4. CSC(=NNC(=O)c1ccccc1Cl)SC [Compound 2, Dimethyl 2-chlorobenzoylcarbonohydrazonodithioate]  50 µg/mL (≈ 182 µM)
5. CSC(=NNC(=O)c1ccccc1[N+](=O)[O-])SC [Compound 6, Dimethyl 2-nitrobenzoylcarbonohydrazonodithioate]  50 µg/mL (≈ 175 µM)
6. CSC(=NNC(=O)c1ccc(O)cc1)SC [Compound 10, Dimethyl 4-hydroxybenzoylcarbonohydrazonodithioate]  25 µg/mL (≈ 97.5 µM)
7. CSC(=NNC(=O)c1cccc(O)c1)SC [Compound 9, Dimethyl 3-hydroxybenzoylcarbonohydrazonodithioate]  25 µg/mL (≈ 97.5 µM)
8. COc1ccc(C(=O)NN=C(SC)SC)cc1 [Compound 11, Dimethyl 4-methoxybenzoylcarbonohydrazonodithioate]  25 µg/mL (≈ 92.5 µM)
9. CSC(=NNC(=O)c1ccccc1O)SC [Compound 8, Dimethyl 2-hydroxybenzoylcarbonohydrazonodithioate]  25 µg/mL (≈ 97.5 µM)
10. CSC(=NNC(=O)c1ccc(Cl)cc1)SC [Compound 3, Dimethyl 4-chlorobenzoylcarbonohydrazonodithioate]  25 µg/mL (≈ 91 µM)
11. CSC(=NNC(=O)c1ccc(Cl)c(Cl)c1)SC [Compound 5, Dimethyl 3,4-dichlorobenzoylcarbonohydrazonodithioate]  12.5 µg/mL (≈ 40.4 µM)
